Results: US7816374B2, “Method of treating neutrophil-related diseases with topical anesthetics” (Mayo Foundation for Medical Education and Research, priority 2000, dated 2010)
“And” between values parts separate entries of the source, which are not always exact repeats. Identical values can stand only once. “Also recorded” adds a separate entry of the source.

How the values were obtained:
neutrophils [1] = experiment: Neutrophil extracellular superoxide production (cytochrome c reduction plate assay); assay type: cell-based, human; conditions: for stimulation of neutrophils to release extracellular superoxide: stimulus screen, G-CSF 5 ug/mL, IFN-γ 100 ng/mL, 1 ug/mL, IL-8 0.5, 1 and 10 ng/mL, LTB4 100 nM and 1 uM
Protocol: Neutrophils were purified from heparinized venous blood of normal volunteers by sedimentation through a cushion of 1.085 gm/ml Percoll made in PIPES buffer, pH 7.4, supplemented with 50 mM NaCl, 5 mM KCl, 25 mM NaOH, and 5.4 mM glucose) and centrifuged at 2,000 rmp in a Beckman CS-6KR centrifuge for 30 minutes with no brake. Plasma, mononuclear cells, and Percoll layers were removed and the erythrocytes were lysed by osmotic shock.
The superoxide production was measured using cytochrome c reduction in a plate assay at a concentration of 50,000 neutrophils/well and was done in duplicate.
(§1) Neutrophils were isolated in a Percoll gradient to remove PBMC.
The extracellular superoxide assay (Cytochrome C method) was performed as follows: 1) The wells of a 96-well plate were blocked with 50 ul of 1% HSA for at least 2 hours at 37° C. 2) The Cytochrome C mix (#C-2506, Sigma, St. Louis, Mo.) was prepared as follows: 2.4 mgs of Cytochrome C was resuspended in 1 mL HBSS/HEPES (pH 7.4). One mL of CytoC mix was required for every 0.5×10^6 cells used in the assay. 3) The blocked cells of the 96 well plate were washed twice with 200 μL saline. 4) 4× stimulus and inhibitor stocks were prepared HBSS/HEPES. The cells were resuspended in CytoC mix to 0.5×10^6 cells/mL and kept on ice until ready for use. 5) The final volume in all wells was 200 μL: 100 μl cell/CytoC mix suspension per well (0.05×10^6 cells/well); 50 μL stimulus (if present) per well and 50 μL inhibitor (if present) per well. If stimulus and/or inhibitor was not required for a well, the volume was made up with HBSS/HEPES so that the total volume in the well was 200 μL. 6) Stimuli, inhibitors and cells were added to the wells in the following order: 1) media filler; 2) inhibitors; 3) cells; and 4) stimuli. 7) The 96 well plate was placed in a ThermoMax plate reader and the OD550 was read at 37° C. The plate was read at time 0 and then every 10 minutes for 1 hour, then every 30 minutes for 3 hours. 8) The concentration of superoxide released was calculated by using the following formula to calculate the nmol of Cytochrome C reduced: 19.1*[OD550(time x)−OD550(time 0)]/0.05=nmol Cytochrome C reduced per 1×10^6 cells=nmol superoxide released per 1×10^6 cells.

[2] = Serum concentration after lidocaine nebulization (PARI II device); assay type: in vivo, human; conditions: nebulization of up to 375 mg over 10 minutes; four normal subjects and four asthma patients; >1 μg/ml in only one patient out of eight
From the text: Scott, D. B. et al., Br J Anaesth. 48:899-902 (1976); Chinn, W. M. et al., Chest 71:346-348 (1977).

[3] = Clinical trial of nebulized lidocaine in severe asthma; assay type: in vivo, human; conditions: twenty patients with severe asthma; 100 mg nebulized lidocaine x4 qd
sputum neutrophilia = experiment: Sputum cell counts before and after four weeks of nebulized lidocaine in patients with chronic protracted post-viral or post-irritant cough; assay type: in vivo, human; design: wbc before / wbc after / eos before / eos after: unit not given here
Protocol: Yamamoto, C. et al., Chest 112:505-510 (1997); Peleman, R. A. et al., Eur. Resp. Journal 13:839-843 (1999); Gibson, P. G. et al., Thorax 44:693-699 (1989). Induction, collection, and processing of sputum is performed according to the method of Pin and Hargreave. Briefly, if the patient is unable to spontaneously produce a 5 cc sputum sample, sputum induction is performed using ultrasonically nebulized hypertonic saline administered in progressive 2 minute increments followed by attempts to cough and produce sputum. The nebulization continues until a total of 12 minutes have elapsed or the patient produces 5 cc of sputum. The initial specimen is collected in a 50 ml conical tube, vortexed and 1 cc of the sputum is aspirated and placed on ice for cytokine analysis. The remaining volume is weighed, and mixed with equal volumes of dithiothreitol, vortexed, then rocked for 15 min at 37° C. with frequent vortexing. The specimen is analyzed for total and differential cell counting.

neutrophils [4] = experiment: Lactoferrin release from stimulated neutrophils (ELISA); assay type: cell-based, human; conditions: FIG. 7
Protocol: as §1
To measure lactoferrin, an ELSIA kit was purchased from Calbiochem (San Diego, Calif.) and the protocols and procedures were followed therein.
When neutrophils begin to invade injured tissue, feedback control of inflammation begins with degranulation of neutrophils and massive release of lactoferrin. The amount of lactoferrin released from neutrophils stimulated with PMA, TNF-α and PAF was measured.

[5] = Patient with inflammatory bowel disease-associated severe bronchitis treated with nebulized lidocaine; assay type: in vivo, human; conditions: nebulized lidocaine 100 mg four times daily; within six weeks; one patient
Protocol: A patient with inflammatory bowel disease-associated severe bronchitis who had symptoms of copious sputum production (in excess of 150 mi/day), daily cough and chest tightness, and shortness of breath on exertion, who had not responded to topical or systemic glucocorticoids and multiple rounds of antibiotics over an 18 month period was treated. Lamos, J. et al., Arch Internationales De Pharmacodynamie et de Therapie 331:179-188 (1996).

eosinophils = conditions: in vitro; Okada et al. 1998; cited from earlier work
[6] = Case report of patient with bronchitis treated with lidocaine inhalation; assay type: in vivo, human
Protocol: The patient was a person first seen in 1996 with a six month history of harsh cough affecting their both during the night and the day. Copious (about 50 ml per day), thick, yellow to white sputum was produced. They were often awakened at night with chest heaviness and dyspnea. […] When initially evaluated, the patient was receiving prednisone, 30 mg every other day, Salmeterol twice daily and Asthmacort four inhalations four times a day.

neutrophils [7] = conditions: in vitro, cited from earlier work
[8] = cited from earlier work
[9] = six patients, after four weeks of nebulized lidocaine

TNF-α
stimulation of neutrophils to release extracellular superoxide (neutrophils [1]): stimulated; also recorded: considerable superoxide anion is released

GM-CSF: granulocyte macrophage colony stimulating factor
stimulation of neutrophils to release extracellular superoxide (neutrophils [1]): stimulated

f-met-leu-phe [fMLP]
stimulation of neutrophils to release extracellular superoxide (neutrophils [1]): stimulated

CCCCC/C=C\C[C@@H](O)/C=C/C=C/C=C\[C@@H](O)CCCC(=O)O [LTB4, leukotriene B4]
stimulation of neutrophils to release extracellular superoxide (neutrophils [1]): did not stimulate

CCN(CC)CC(=O)Nc1c(C)cccc1C [lidocaine, (2-diethylamino)-N-(2,6-dimethylphenyl)acetamide]
serum concentration [2]: 1500 ng/mL | patients able to discontinue or reduce the use of oral GC by 80% [3]: seventeen | side effects [3]: minimal side effects | cough (sputum neutrophilia; [9]): clearing of their cough | sputum neutrophils (sputum neutrophilia; [9]): reduction of sputum neutrophils | pmn after (sputum neutrophilia; sputum PMN of individual patients after four weeks of nebulized lidocaine): 568,400 and 352,000 and 617,760 and 79,900 and 1,612,800 and 551,200 | pmn before (sputum neutrophilia; sputum PMN of individual patients before lidocaine treatment (baseline)): 1,032,200 and 3,569,000 and 1,566,000 and 2,772,000 and 4,093,400 and 1,256,250 | wbc after (sputum neutrophilia; sputum WBC of individual patients after four weeks of nebulized lidocaine): 1,160,000 and 1,600,000 and 2,808,000 and 85,000 and 4,480,300 and 2,120,000 | wbc before (sputum neutrophilia; sputum WBC of individual patients before lidocaine treatment (baseline)): 3,330,000 and 6,050,000 and 2,700,000 and 4,760,000 and 2,512,500 | eos after (sputum neutrophilia; sputum eosinophils of individual patients after four weeks of nebulized lidocaine): 0 (2×) and 96,000 and 2,808 and 134,400 and 42,500 | eos before (sputum neutrophilia; sputum eosinophils of individual patients before lidocaine treatment (baseline)): 0 (3×) and 484,000 and 12,798 and 1,384,200 | lactoferrin release in PMA stimulated neutrophils (neutrophils [4]; PMA stimulus): may have an effect | lactoferrin release in neutrophils stimulated with TNF (neutrophils [4]; TNF stimulus): significantly inhibits | cough and chest tightness [5]: disappeared | sputum volume [5]: diminished to zero | cytokine-stimulated eosinophilopoesis and prolongation of survival, activation, respiratory burst, and degranulation of eosinophils (eosinophils): inhibit | patient-reported course on continued therapy ([6]; lidocaine by inhalation for the following year, occasional antibiotics): continued improvement | sputum volume and cough ([6]; lidocaine by inhalation, over a span of three weeks, one patient): diminished strikingly | activation of neutrophils by G-CSF, TNF-α and GM-CSF (neutrophils [7]): inhibits activation | neutrophil aggregation and degranulation (neutrophils [7]): Inhibition | depolarization of neutrophil membrane potential, superoxide generation and chemiluminescence response in neutrophils (neutrophils [7]; concentration-dependent manner): inhibits | systemic glucocorticoid use in steroid-dependent asthma ([8]; lidocaine inhalation, most adult and pediatric patients): reduces or eliminates systemic glucocorticoids | topical glucocorticoid use in mild to moderate asthma ([8]; nebulized lidocaine): able to replace topical glucocorticoids | peripheral blood eosinophils when topical glucocorticoids were withdrawn ([8]; nebulized lidocaine, mild to moderate asthma): prevented the rise | TNF-α stimulated neutrophil superoxide anion production (neutrophils [1]; 3 mM lidocaine, TNF-alpha stimulus, 50,000 neutrophils/well): virtually totally suppresses; also recorded: almost totally inhibited | C5a stimulated neutrophil superoxide anion production (neutrophils [1]; C5a stimulus, FIGS. 6A and 6B): suppresses | stimulation of neutrophils (extracellular superoxide) by stimuli (neutrophils [1]; all stimuli with the exception of PMA): inhibits the stimulation of neutrophils in a dose dependent manner | PMA induced neutrophil superoxide anion production (neutrophils [1]; lidocaine, PMA stimulus): does not alter this production; also recorded: not inhibited | superoxide anion production by unstimulated neutrophils (neutrophils [1]; presence and absence of 3 mM lidocaine, no stimulus): no superoxide anion is produced

CCCCCCCCCCCCCC(=O)O[C@@H]1[C@@H](C)[C@@]2(O)[C@@H](C=C(CO)C[C@]3(O)C(=O)C(C)=C[C@@H]23)[C@@H]2C(C)(C)[C@]12OC(C)=O [PMA, phorbol-myristate acetate]
stimulation of neutrophils to release extracellular superoxide (neutrophils [1]): stimulated; also recorded: stimulates superoxide anion very considerably

IFN-γ: interferon gamma
stimulation of neutrophils to release extracellular superoxide (neutrophils [1]): did not stimulate

IL-8: interleukin 8
stimulation of neutrophils to release extracellular superoxide (neutrophils [1]): did not stimulate

B1: G-CSF: granulocyte colony stimulating factor (protein, UniProt P09919 31-207, looked up)
Granulocyte …: TPLGPASSLPQSFLLKCLEQVRKIQGDGAALQEKLVSECATYKLCHPEELVLLGHSLGIPWAPLSSCPSQALQLAGCLSQLHSGLFLYQGLLQALEGISPELGPTLDTLQLDVADFATTIWQQMEELGMAPALQPTQGAMPAFASAFQRRAGGVLVASHLQSFLEVSYRVLRHLAQP
stimulation of neutrophils to release extracellular superoxide (neutrophils [1]): did not stimulate

B2: C5a: component of the complement system (protein, UniProt P01031 678-751, looked up)
C5a anaphylatoxin: TLQKKIEEIAAKYKHSVVKKCCYDGACVNNDETCEQRAARISLGPRCIKAFTECCVVASQLRANISHKDMQLGR
modifications: C5a anaphylatoxin
notes: component of the complement system
stimulation of neutrophils to release extracellular superoxide (neutrophils [1]): stimulated; also recorded: stimulates superoxide anion production
